PubChem BioAssay (NCI)
Values joined by “and” are separate entries in the source; they are usually repeats but may differ in a detail not shown here. Identical values can stand only once.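 Tested at 5 concentrations; 48 h exposure; 96-well plates; endpoints linearly interpolated, else capped at highest concentration. The concentration for 50% growth inhibition is given as GI50. Definition used: TGI = concentration required for complete inhibition of growth.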

Tests used:
Assay in all cases: NCI tumour cell line growth inhibition, 48 h
786-0 renal = tested on: 786-0 renal
A498 renal = tested on: A498 renal
A549 NSCLC = tested on: A549 NSCLC
ACHN renal = tested on: ACHN renal
BT-549 breast = tested on: BT-549 breast
CAKI-1 renal = tested on: CAKI-1 renal
CCRF-CEM leukemia = tested on: CCRF-CEM leukemia
COLO 205 colon = tested on: COLO 205 colon
DLD-1 colon = tested on: DLD-1 colon
DU-145 prostate = tested on: DU-145 prostate
EKVX NSCLC = tested on: EKVX NSCLC
HCC-2998 colon = tested on: HCC-2998 colon
HCT-116 colon = tested on: HCT-116 colon
HCT-15 colon = tested on: HCT-15 colon
HL-60(TB) leukemia = tested on: HL-60(TB) leukemia
HOP-18 NSCLC = tested on: HOP-18 NSCLC
HOP-62 NSCLC = tested on: HOP-62 NSCLC
HOP-92 NSCLC = tested on: HOP-92 NSCLC
HS 578T breast = tested on: HS 578T breast
HT29 colon = tested on: HT29 colon
IGROV1 ovarian = tested on: IGROV1 ovarian
K-562 leukemia = tested on: K-562 leukemia
KM12 colon = tested on: KM12 colon
KM20L2 colon = tested on: KM20L2 colon
LOX IMVI melanoma = tested on: LOX IMVI melanoma
LXFL 529 NSCLC = tested on: LXFL 529 NSCLC
M14 melanoma = tested on: M14 melanoma
M19-MEL melanoma = tested on: M19-MEL melanoma
MALME-3M melanoma = tested on: MALME-3M melanoma
MCF7 breast = tested on: MCF7 breast
MDA-MB-231 breast = tested on: MDA-MB-231 breast
MDA-MB-435 = tested on: MDA-MB-435
MDA-N = tested on: MDA-N
MOLT-4 leukemia = tested on: MOLT-4 leukemia
NCI-H226 lung = tested on: NCI-H226 lung
NCI-H23 lung = tested on: NCI-H23 lung
NCI-H460 lung = tested on: NCI-H460 lung
NCI-H522 lung = tested on: NCI-H522 lung
NCI/ADR-RES ovarian = tested on: NCI/ADR-RES ovarian
OVCAR-3 ovarian = tested on: OVCAR-3 ovarian
OVCAR-4 ovarian = tested on: OVCAR-4 ovarian
OVCAR-5 ovarian = tested on: OVCAR-5 ovarian
OVCAR-8 ovarian = tested on: OVCAR-8 ovarian
PC-3 prostate = tested on: PC-3 prostate
RPMI-8226 leukemia = tested on: RPMI-8226 leukemia
RXF 393 renal = tested on: RXF 393 renal
SF-268 CNS = tested on: SF-268 CNS
SF-295 CNS = tested on: SF-295 CNS
SF-539 CNS = tested on: SF-539 CNS
SK-MEL-2 melanoma = tested on: SK-MEL-2 melanoma
SK-MEL-28 melanoma = tested on: SK-MEL-28 melanoma
SK-MEL-5 melanoma = tested on: SK-MEL-5 melanoma
SK-OV-3 ovarian = tested on: SK-OV-3 ovarian
SN12C renal = tested on: SN12C renal
SNB-19 CNS = tested on: SNB-19 CNS
SNB-75 CNS = tested on: SNB-75 CNS
SNB-78 CNS = tested on: SNB-78 CNS
SR leukemia = tested on: SR leukemia
SW-620 colon = tested on: SW-620 colon
T-47D breast = tested on: T-47D breast
TK-10 renal = tested on: TK-10 renal
U251 CNS = tested on: U251 CNS
UACC-257 melanoma = tested on: UACC-257 melanoma
UACC-62 melanoma = tested on: UACC-62 melanoma
UO-31 renal = tested on: UO-31 renal
XF 498 CNS = tested on: XF 498 CNS

`CCc1nc(N)nc(N)c1-c1ccc(Cl)c(N=[N+]=[N-])c1` was tested, and the TGI (786-0 renal) was > 77.8 µM and 45.2 µM, the TGI (A498 renal) was 60.7 µM and 72.6 µM and the GI50 (A549 NSCLC) was 0.58 µM and 1.68 µM. The TGI (A549 NSCLC) was greater than 100 µM, the GI50 (ACHN renal) was 2.33 µM and 4.75 µM and the TGI (ACHN renal) was greater than 100 µM. For the same molecule, the GI50 (BT-549 breast) was 6.14 µM and 15.2 µM, the TGI (BT-549 breast) was 48.8 µM and 77.7 µM and the GI50 (CAKI-1 renal) was 19.3 µM and 7.29 µM. For the same molecule, the TGI (CAKI-1 renal) was 99.5 µM and > 96.4 µM, the GI50 (CCRF-CEM leukemia) was 0.898 µM and 3.89 µM and the TGI (CCRF-CEM leukemia) was 31.9 µM and > 71.9 µM. For the same molecule, the TGI (COLO 205 colon) was 23.3 µM and 26.1 µM, the TGI (DLD-1 colon) was greater than 100 µM and the TGI (DU-145 prostate) was greater than 100 µM. The TGI (EKVX NSCLC) was > 100 µM and 99.8 µM, the TGI (HCC-2998 colon) was 23 µM and 30.8 µM and the TGI (HCT-116 colon) was > 80.6 µM and 65.1 µM. The GI50 (HCT-15 colon) was 0.791 µM and 2.06 µM, the TGI (HCT-15 colon) was greater than 100 µM and the GI50 (HL-60(TB) leukemia) was 0.4 µM and 2.14 µM. The TGI (HOP-18 NSCLC) was greater than 100 µM, the TGI (HOP-62 NSCLC) was > 59.8 µM and 62.8 µM and the TGI (HOP-92 NSCLC) was > 90.7 µM and 68.2 µM. For the same molecule, the TGI (HS 578T breast) was 93.1 µM and > 100 µM, the GI50 (HT29 colon) was 1.32 µM and 3.06 µM and the TGI (HT29 colon) was greater than 85.4 µM. For the same molecule, the GI50 (IGROV1 ovarian) was 2.09 µM and 4.22 µM, the TGI (IGROV1 ovarian) was greater than 91.2 µM and the TGI (K-562 leukemia) was greater than 54.8 µM. The TGI (KM12 colon) was 73.1 µM and > 100 µM, the TGI (KM20L2 colon) was greater than 100 µM and the TGI (LOX IMVI melanoma) was > 100 µM and 67.7 µM. The TGI (LXFL 529 NSCLC) was greater than 100 µM, the GI50 (M14 melanoma) was 0.641 µM and 3.51 µM and the TGI (M14 melanoma) was 24.1 µM and 49 µM. For the same molecule, the TGI (M19-MEL melanoma) was greater than 100 µM, the GI50 (MALME-3M melanoma) was 14 µM and 6.3 µM and the TGI (MALME-3M melanoma) was 30.2 µM and 23.5 µM. For the same molecule, the TGI (MCF7 breast) was > 76.1 µM and 56.7 µM, the TGI (MDA-MB-231 breast) was > 67.6 µM and 46.5 µM and the TGI (MDA-MB-435) was 36.7 µM and > 83.7 µM. For the same molecule, the GI50 (MDA-N) was 0.812 µM and 5.03 µM, the TGI (MDA-N) was 53.9 µM and > 84.9 µM and the GI50 (MOLT-4 leukemia) was 2.82 µM and 6.62 µM. For the same molecule, the TGI (MOLT-4 leukemia) was 26.8 µM and 71.1 µM, the TGI (NCI-H226 lung) was greater than 100 µM and the TGI (NCI-H23 lung) was > 93.8 µM and 80.9 µM. The GI50 (NCI-H460 lung) was 0.463 µM and 1.23 µM, the TGI (NCI-H460 lung) was greater than 81.7 µM and the TGI (NCI-H522 lung) was 42.5 µM and 29.4 µM. The TGI (NCI/ADR-RES ovarian) was 63.9 µM and 99.4 µM, the TGI (OVCAR-3 ovarian) was 64.6 µM and 80 µM and the TGI (OVCAR-4 ovarian) was 97.7 µM and > 100 µM. For the same molecule, the TGI (OVCAR-5 ovarian) was greater than 100 µM, the GI50 (OVCAR-8 ovarian) was 15.4 µM and 4.79 µM and the TGI (OVCAR-8 ovarian) was greater than 100 µM. For the same molecule, the GI50 (PC-3 prostate) was 12.6 µM and 2.06 µM, the TGI (PC-3 prostate) was greater than 100 µM and the TGI (RPMI-8226 leukemia) was 39.2 µM and 52.1 µM. The GI50 (RXF 393 renal) was 2.86 µM and 11.7 µM, the TGI (RXF 393 renal) was 42.3 µM and 73.6 µM and the TGI (SF-268 CNS) was greater than 100 µM. The TGI (SF-295 CNS) was > 100 µM and 82 µM, the TGI (SF-539 CNS) was > 39.9 µM and 65.3 µM and the TGI (SK-MEL-2 melanoma) was 41.3 µM and 43.7 µM. The TGI (SK-MEL-28 melanoma) was > 87.7 µM and 60.5 µM, the TGI (SK-MEL-5 melanoma) was 19.1 µM and 18.2 µM and the TGI (SK-OV-3 ovarian) was greater than 100 µM. The TGI (SN12C renal) was greater than 100 µM, the GI50 (SNB-19 CNS) was 5.09 µM and 19.5 µM and the TGI (SNB-19 CNS) was greater than 100 µM. The TGI (SNB-75 CNS) was greater than 87.3 µM, the TGI (SNB-78 CNS) was greater than 100 µM and the GI50 (SR leukemia) was 1.3 µM and 2.68 µM. The TGI (SR leukemia) was 19.2 µM and 43.9 µM, the TGI (SW-620 colon) was greater than 100 µM and the TGI (T-47D breast) was greater than 96.2 µM. For the same molecule, the GI50 (TK-10 renal) was 8.78 µM and 29.3 µM, the TGI (TK-10 renal) was greater than 100 µM and the TGI (U251 CNS) was greater than 100 µM. For the same molecule, the GI50 (UACC-257 melanoma) was 1.58 µM and 12.9 µM, the TGI (UACC-257 melanoma) was 40 µM and > 92.7 µM and the GI50 (UACC-62 melanoma) was 0.78 µM and 3.13 µM. The TGI (UACC-62 melanoma) was 24.8 µM and 26.8 µM, the GI50 (UO-31 renal) was 5.8 µM and 14.6 µM and the TGI (UO-31 renal) was 88 µM and > 100 µM. It also gave a TGI (XF 498 CNS) of 88.1 µM.
